Experiments:
[1] = tested on: STAT3 phosphorylation; assay: Immunoblot, STAT3 phosphorylation in PC9 cells; assay type: cell-based; conditions: for STATS phosphorylation: PC9 cells, 3 days, sorafenib 5 μM or SC-1 20 μM, FIG. 11B
Procedure: (§1) Immunoblot was performed using the indicated antibodies.
FIG. 11: SC-1 prevents resistance of NSCLC cells to EGFR TKI. […] The mean values (±SEM) representative of four independent experiments are represented. (B).
(§2) Cells were washed once with phosphate-buffered saline (PBS) and lysed on ice in a buffer containing 50 mM Hepes pH 7.6, 150 mM NaCl, 5 mM EDTA, 1% Nonidet P-40, 20 mM NAF, 2 mM sodium orthovanadate, supplemented with protease inhibitor mini tablets (Thermo Scientific). Lysates were cleared by centrifugation at 14,000 g during 15 min at 4° C. and protein concentrations were determined by using the Bradford protein assay (Bio-Rad). Sodium dodecyl sulfate (SDS) loading buffer was added to equal amounts of lysate, followed by SDS-polyacrylamide gel electrophoresis (SDS-PAGE) and transfer to polyvinylidene fluoride (PVDF) membrane (Thermo Scientific). Membranes were analyzed by chemiluminescence using a ChemiDoc imaging system (Biorad). All primary antibodies were purchased from Cell Signaling. Secondary antibodies were purchased from Santa Cruz.

[2] = tested on: MAPK activation; assay: Immunoblot, MAPK activation in PC9 cells; assay type: cell-based; conditions: sorafenib 5 μM, 2 or 6 hours; FIG. 4A
Procedure: as §1, §2

[3] = tested on: MYC transcription factor; assay: Immunoblot, MYC expression in PC9 cells; assay type: cell-based; conditions: sorafenib 5 μM, two days; parental and EGFR-T790M PC9 cells; FIG. 4B
Procedure: as §1, §2

[4] = tested on: NSCLC; conditions: treatment of NSCLC; Shepherd et al 2005; cited from earlier work
[5] = tested on: EGFR-C797S cells within PC9-(EGFR-T790M) cells; assay: CRISPR-barcoding qPCR: EGFR-C797S barcode in PC9-(EGFR-T790M) cells; assay type: cell-based; conditions: osimertinib 1 μM alone, nine days; FIG. 3A
Text: (§3) The set of silent mutations is designed to enable PCR specificity and to avoid recognition by the corresponding sgRNA used to cleave the endogenous sequence. […] Immediately after transfection, the cells were pooled in the same flask.
(§4) gDNA was extracted using the NucleoSpin Tissue kit (Macherey-Nagel). To avoid potential amplification from ssODN molecules not integrated in the correct genomic locus, one of the two primers was designed to target the endogenous genomic sequence flanking the region sharing homology with the ssODNs.

[6] = tested on: EGFR-C797S cells within PC9-(EGFR-T790M) cells; assay: Colony forming assay, EGFR-C797S barcoded PC9-(EGFR-T790M) cells; assay type: cell-based; conditions: osimertinib 1 μM alone, 14 days; FIG. 3B
[7] = tested on: parental, EGFR-T790M and EGFR-T790M/C797S PC9 cells
[8] = tested on: EGFR-T790M PC9 cells containing the EGFR-C797S CRISPR-barcode; conditions: mouse, in vivo
Procedure: From day 39, the mice were treated three times per week. The mean tumor size ±SEM is represented for the different groups (5 mice per group).
The proportions of the barcode in the cells prior to mouse injection was analyzed in parallel and arbitrarily set to 1. (B) For each group, the mean of the values (±SEM) shown in A is represented.
Gefitinib resistant PC9 cells (EGFR-T790M) containing the EGFR-C797 CRISPR-barcodes were mixed with matrigel and subcutaneously inoculated in the left and right flank (2×10^6 cells per site) of male SCID mice. The size of the tumors was measured by caliper every 3-4 days. […] From day 39, the mice were treated three times per week. Tumors from sacrificed mice were dissected, and gDNA was derived using the DNeasy Blood & Tissue Kit (Qiagen).

[9] = tested on: NSCLC; conditions: first-line treatment; Soria et al. 2018; cited from earlier work
[10] = tested on: PC9 cells containing the EGFR-T790M mutation; assay: CRISPR-barcoding qPCR: fraction of EGFR-T790M barcode in PC9 cells in the presence of gefitinib; assay type: cell-based; conditions: SC-1 20 μM, gefitinib 1 μM, 5 days; FIG. 11A
Text: (§5) Cells were transfected with a Nucleofector II device (Lonza) using the Amaxa Nucleofector kit (Lonza) and electroporation program recommended by the manufacturer.
as §3, §4, §5, §3

[11] = tested on: EGFR; assay: Immunoblot, EGFR expression in PC9 cells; assay type: cell-based; conditions: 3 days, sorafenib 5 μM or SC-1 20 μM, FIG. 11B
Procedure: The fraction of the EGFR-T790T and EGFR-T790M barcodes was assessed by qPCR and normalized to the total amount of gDNA using EGFR_Ctrl primers.

[12] = target: kinase; conditions: cited from earlier work
[13] = tested on: STAT3 phosphorylation; conditions: different cell models, including EGFR-wild type NSCLC cells; Su et al., 2015; Wang et al., 2014; cited from earlier work
[14] = tested on: breast cancer cell lines; conditions: Liu et al. 2013; cited from earlier work
[15] = tested on: EGFR wild-type NSCLC cell lines; conditions: Wang et al 2014; cited from earlier work
[16] = tested on: EGFR-wild type NSCLC cells; conditions: different cell models, including EGFR-wild type NSCLC cells; Su et al., 2015; Wang et al., 2014; cited from earlier work

Compound: CNC(=O)c1cc(Oc2ccc(NC(=O)Nc3ccc(Cl)c(C(F)(F)F)c3)cc2)ccn1 [sorafenib]
- STATS phosphorylation [1]: inhibited
- STAT3 phosphorylation ([1]; sorafenib 5 μM, 2 or 6 hours, FIG. 4): rapid inhibition
- MAPK activation [2]: no effect
- expression of MYC transcription factor [3]: down-regulated

Compound: C#Cc1cccc(Nc2ncnc3cc(OCCOC)c(OCCOC)cc23)c1 [erlotinib]
- clinical response rate [4]: about 8.9%

Compound: C=CC(=O)Nc1cc(Nc2nccc(-c3cn(C)c4ccccc34)n2)c(OC)cc1N(C)CCN(C)C [osimertinib]
- amplification of EGFR-C797S cells (qPCR) [5]: induced a strong amplification
- amplification of EGFR-C797S cells (colony forming assay) [6]: induced a strong amplification
- cell growth (colony forming assay) [7]: inhibited cell growth
- growth of the tumors / tumor size [8]: initially inhibited, but it eventually resumed after a few weeks
- adverse effects compared to first/second generation TKIs [9]: less severe adverse effects
- efficacy compared to first/second generation TKIs [9]: superior efficacy

Compound: N#Cc1ccc(Oc2ccc(NC(=O)Nc3ccc(Cl)c(C(F)(F)F)c3)cc2)cc1 [SC-1, N-[4-Chloro-3-(trifluoromethyl)phenyl]-N′-[4-(4-cyanophenoxy)phenyl]-urea]
- amplification of EGFR-T790M containing cells in the presence of gefitinib (qPCR) [10]: could mimic the effects of sorafenib
- STATS phosphorylation [1]: inhibited
- EGFR expression [11]: down-regulated
- kinase-inhibition activity [12]: no kinase-inhibition activity
- pSTAT3 inhibition [13]: pSTAT3 inhibition
- apoptosis [14]: induces apoptosis
- apoptosis [15]: induces apoptosis
- growth inhibition [16]: growth inhibition

Source: patent US20200237736A1, “METHODS FOR PREVENTING OR TREATING CANCER RESISTANCE TO EGFR INHIBITION” (INSERM (INSTITUT NATIONAL DE LA SANTE ET DE LA RECHERCHE …, priority 2017, published 2020)
